Columns and labels:
Test in all cases: greenhouse post-emergence herbicidal test
Format in all cases: in vivo
Amaranthus retroflexus = tested on: Amaranthus retroflexus
Description: (§1) The seeds of the test plants were sown separately for each species. For the post-emergence treatment, the test plants were first grown to a height of 3 to 15 cm, depending on the plant habit, and only then treated with the active compounds which had been suspended or emulsified in water. For this purpose, the test plants were either sown directly and grown in the same containers, or they were first grown separately as seedlings and transplanted into the test containers a few days prior to treatment. […] (active substance). Depending on the species, the plants were kept at 10-25° C. or 20-35° C. The test period extended over 2 to 4 weeks. During this time, the plants were tended, and their response to the individual treatments was evaluated. Evaluation was carried out using a scale from 0 to 100. 100 means no emergence of the plants, or complete destruction of at least the aerial parts, and 0 means no damage, or normal course of growth. The plants used in the greenhouse experiments belonged to the following species: [table]

Chenopodium album = tested on: Chenopodium album
Description: as §1

Setaria viridis = conditions: application rate 1 kg/ha
Description: The seeds of the test plants were sown separately for each species. For the post-emergence treatment, the test plants were first grown to a height of 3 to 15 cm, depending on the plant habit, and only then treated with the active compounds which had been suspended or emulsified in water. For this purpose, the test plants were either sown directly and grown in the same containers, or they were first grown separately as seedlings and transplanted into the test containers a few days prior to treatment. The rate of application for the post-emergence treatment was 1.0 kg/ha of a.s. (active substance). Depending on the species, the plants were kept at 10-25° C. or 20-35° C. The test period extended over 2 to 4 weeks. During this time, the plants were tended, and their response to the individual treatments was evaluated. Evaluation was carried out using a scale from 0 to 100. 100 means no emergence of the plants, or complete destruction of at least the aerial parts, and 0 means no damage, or normal course of growth. The plants used in the greenhouse experiments belonged to the following species: [table]

Galium aparine = conditions: application rate 0.5 kg/ha
Description: as §1

Row | Structure (SMILES) | post-emergence activity against Amaranthus retroflexus (Amaranthus retroflexus; application rate 1 kg/ha) | post-emergence activity against Chenopodium album (Chenopodium album; application rate 1 kg/ha) | post-emergence activity against Setaria viridis (Setaria viridis) | post-emergence activity against Amaranthus retroflexus (Amaranthus retroflexus; application rate 0.5 kg/ha) | post-emergence activity against Chenopodium album (Chenopodium album; application rate 0.5 kg/ha) | post-emergence activity against Galium aparine (Galium aparine)
1 | CNC(=O)[C@@H](NC(=O)c1ccc(F)cc1C(F)(F)F)[C@H](CNC(C)=O)c1ccccc1 (racemic) [Compound 4.16, N-((1RS,2RS)-3-Acetylamino-1-methylcarbamoyl-2-phenylpropyl)-4-fluoro-2-trifluoromethylbenzamide] | very good | very good | very good |  |  | 
2 | CNC(=O)C(NC(=O)c1ccc(F)cc1C(F)(F)F)C(C[N+](=O)[O-])c1cccc(F)c1C (mixture of isomers) [Compound 5.4] | very good | very good |  |  |  | 
3 | CNC(=O)C(NC(=O)c1ccc(F)cc1C(F)(F)F)C(CNC(=O)C(F)(F)F)c1ccccc1 (racemic) [Compound 4.21] | very good | very good | very good |  |  | 
4 | CNC(=O)C(NC(=O)c1ccc(F)cc1C(F)(F)F)C(CNC(C)=O)c1ccccc1C (mixture of isomers) [Compound 4.34] | very good | very good | very good |  |  | 
5 | CNC(=O)C(NC(=O)c1ccc(F)cc1C(F)(F)F)C(c1ccccc1C)C(C)O (racemic) [Compound 3.12] |  |  |  | very good | very good | very good
6 | CNC(=O)C(NC(=O)c1ccc(F)cc1C(F)(F)F)C(C[N+](=O)[O-])c1ccccc1 (racemic) [Compound 5.1, 4-Fluoro-N-(1-methylcarbamoyl-3-nitro-2-phenylpropyl)-2-trifluoromethylbenzamide] |  |  |  | very good | good | good
7 | CNC(=O)C(NC(=O)c1ccc(F)cc1C(F)(F)F)C(c1ccccc1)C(C)[N+](=O)[O-] (mixture of isomers) [Compound 5.2] |  |  |  | very good | very good | very good
8 | CNC(=O)C(NC(=O)c1ccc(F)cc1C(F)(F)F)C(CNC(=O)N(C)C)c1ccccc1C (mixture of isomers) [Compound 4.33] | very good | very good | very good |  |  | 
9 | CNC(=O)C(NC(=O)c1ccc(F)cc1C(F)(F)F)C(C[N+](=O)[O-])c1cccc(F)c1 (mixture of isomers) [Compound 5.3] | very good | good |  |  |  | 
10 | CNC(=O)C(NC(=O)c1ccc(F)cc1C(F)(F)F)C(CNC(C)=O)c1cccc(F)c1C (mixture of isomers) [Compound 4.36] | very good | very good | very good |  |  | 
11 | CNC(=O)C(NC(=O)c1ccc(F)cc1C(F)(F)F)C(CNC(=O)C(Cl)(Cl)Cl)c1ccccc1 (racemic) [Compound 4.22] | very good | very good | very good |  |  | 
12 | CNC(=O)C(NC(=O)c1ccc(F)cc1C(F)(F)F)C(CNS(C)(=O)=O)c1ccccc1 (mixture of isomers) [Compound 4.4] | very good | very good | very good |  |  | 
13 | CNC(=O)C(NC(=O)c1ccc(F)cc1C(F)(F)F)C(CNC(=O)N(C)C)c1ccccc1 (racemic) [Compound 4.12] | very good | very good | very good |  |  | 
